The record followed here is patent publication US20160168140A1, “HETEROCYCLIC COMPOUNDS AS ANTIBIOTIC POTENTIATORS” (priority 2014, published 2016).

Assay [1] relates to panel of Gram-negative bacteria with different colistin susceptibilities. The assay can be described thus: Fractional inhibitory concentration index (FICI) checkerboard assay with colistin. As to conditions: for FICI Values of Colistin and Potentiator in Resistant Bacteria: FICI values of ≦0.5 indicate synergy. It is filed as cell-based. The procedure: The fractional inhibitory concentration index (FICI) was determined in combination with colistin using the broth microdilution susceptibility test method as described by the CLSI (Methods for Dilution Antimicrobial Susceptibility Tests for Bacteria That Grow Aerobically; Approved Standard-Ninth Edition. 2012. CLSI document M07-A9. CLIS, 940 West Valley Road, Suite 1400, Wayne, Pa. 19087-1898 USA). This checkerboard assay was set up with decreasing concentrations of colistin across the plate from left to right and decreasing concentrations of potentiator from top to bottom. The FICI values were then calculated using the methods of Lorian et al. (Antibiotics in Laboratory Medicine—Fifth Edition. 2005. Lippincott, Williams, & Wilkins, Philadelphia, Pa.). A panel of Gram-negative bacteria with different colistin susceptibilities were tested.
Each of the tested compounds synergized with colistin in the three species of colistin-resistant bacteria tested.

Assay [2] concerns Acinetobacter baumannii (Ab23). The assay can be described thus: MIC shift assay of antibiotics (broth microdilution). As to conditions: for Colistin MIC Shift: A. baumannii (MDR Ab), compd. concentration 4.0 μM, colistin MIC 0.5-1.0 μg/mL; for colistin MIC shift, Ab23 at (compd concentration): fold shift of colistin MIC, nc = no changeover or no shift. It is filed as cell-based. Summed up: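 Broth microdilution MIC shift assay against Acinetobacter baumannii. Overnight cultures in cation-adjusted Mueller Hinton broth at 37° C. were sub-cultured 1:200, grown to OD600=0.5 to 0.8, diluted to OD600=0.01, and added (50 μL) to wells holding 50 μL of 2× antibiotic stocks for a starting OD600 of 0.005. After 18 to 20 h at 37° C. with shaking, OD600 was read to obtain MICs.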
In general terms: Dilution methods test growth across graded concentrations, often in twofold steps.

The subject of another assay is E. coli. The assay is described as above. It is filed as cell-based. As to conditions: E. coli (SCR1); compd. concentration 4.0 μM; colistin MIC 0.5-1.0 μg/mL. The procedure: Minimum inhibitory concentration (MIC) shift assays were performed to determine if the test compounds could alter the MIC of existing antibacterial drugs (e.g., ciprofloxacin and colistin) for E. coli, Acinetobacter baumannii, Klebsiella pneumoniae, Pseudomonas aeruginosa, and Enterobacter cloacae. The MIC shift assay is based on the standard broth microdilution MIC determination protocol of Wiegand et al, Nat Protoc. 3(2):163-75 (2008), with slight modifications that allow for the screening of up to seven test compounds in a single plate.
On the day before an assay, bacteria were grown overnight in cation-adjusted Mueller Hinton broth (CAMHB; Teknova, Hollister, Calif.) at 37° C. in an orbital shaker and sub-cultured at a 1:200 dilution the following morning. The cells were grown to OD600=0.5 to 0.8 and then diluted to OD600=0.01. From a serial dilution of each antibiotic at (50 μL of 2× concentrated stock solutions) several concentrations were added to the wells of a sterile, transparent round-bottom 96-well plate (Phenix Research Products, Candler, N.C.), and diluted cells (50 μL) were added to the plates for a starting OD600 of 0.005. Then, a test compound (2.5 μL) was added to each well to give a final concentration of 4 or 10 μM. A row of wells lacking test compound but containing the antibiotic was used to determine the MIC of that antibiotic alone. A column of wells lacking both antibiotic and test compound served as a growth control, and an additional column containing only CAMHB was included as a sterile blank control.
The plates were incubated for 18 to 20 h at 37° C. in an orbital shaker, and the cell density (OD600) was determined the following day in a microplate reader (PolarStar Optima, BMG Labtech). The MIC shift was determined by comparing the MIC of the antibiotic alone to the MIC of the antibiotic plus test compound.

In a further assay the test system is Ab23. The assay can be described thus: Time-kill assay with colistin and potentiator. It counts as cell-based, Acinetobacter baumannii. More on the design: time-kill: concentration of potentiator required for effect: unit not given here. As to conditions: for time-kill: effect on Ab23 cells in the absence of colistin: compound alone (compound III at 10 μM), FIGS. 2-4; for time-kill: effect in the presence of colistin: compound plus colistin, Ab23, FIGS. 2-4. The procedure:
Colistin and potentiator were diluted to 1000× final concentrations in water and DMSO, respectively. Then, 3 μl of the appropriate dilutions were added to culture tubes. An overnight culture of Ab23 was diluted to 10^6 CFU/ml, and 3 mL of cells were added to the tubes. The cultures were incubated at 37° C. in an orbital shaker. An aliquot of the starting inoculum was serially diluted in CAMHB and spread on LB agar plates for CFU determination. At 2, 4, 8, and 24 hours, aliquots were removed from each of the culture tubes, diluted, and spread LB agar plates. The plates were incubated overnight at 37° C. The following day, the number of CFUs on each plate was counted, and the number of bacterial in each culture condition was calculated. Colistin (“C”) was tested at 2 and 8 µg/mL. The select compounds (“P”) were tested at 2 and 10 µg/mL. The dotted line indicates the limit of detection.

[3] abbreviates: colistin-resistant A. baumannii.
Where [4] appears, read: colistin-resistant K. pneumoniae.
[5] abbreviates: colistin-resistant P. aeruginosa.

Structures are written as SMILES.

`CN(C)CCCNc1nc(-c2cccc(-c3cc(C(F)(F)F)ccc3F)c2)nc2c(C(F)(F)F)cccc12` [IV]: the results for the “MIC Shift of Colistin and Potentiator in Resistant Bacteria” value (shortened to “MIC Shift of Colistin and Potentiator”) in assay [1] (setting [3]), in assay [1] (setting [4]) and in assay [1] (setting [5]) were 133 x, 512 x and 33 x, respectively. In addition, the “FICI Values of Colistin and Potentiator in Resistant Bacteria” value (from here on “FICI Values of Colistin and Potentiator”) worked out at 0.24 in assay [1] (setting [3]), 0.21 in assay [1] (setting [4]) and 0.27 in assay [1] (setting [5]).

As for `CN(C)CCCNc1nc(-c2cc(Br)cc(C(F)(F)F)c2)nc2c(Cl)cccc12` [compound 337], the “Colistin MIC Shift” value (in assay [2]; in the assay with E. coli) was 4x each time. Besides, the “colistin MIC shift, Ab23 at (compd concentration)” value (shortened to “colistin MIC shift, Ab23”) in assay [2] (compound concentration 2 μM) is listed as 8-16x.

Consider `CN(C)CCCNc1nc(-c2cc(Br)cc(C(F)(F)F)c2)nc2c(Br)cccc12` [compound 338], for which the “Colistin MIC Shift” value (in assay [2]; with E. coli) was 4x each time. The “colistin MIC shift, Ab23” value in assay [2] (compound concentration 2 μM) is 8-16x.

Regarding `Cc1cccc2c(NCCCN(C)C)nc(-c3cc(C(F)(F)F)cc(C(F)(F)F)c3)nc12` [compound 339], the “Colistin MIC Shift” value (in assay [2]; with E. coli) was 8x each time. Further, the “colistin MIC shift, Ab23” value in assay [2] (compound concentration 2 μM) was 8-16x.

On to `CNCCCN(C)c1nc(-c2cc(Br)cc(C(F)(F)F)c2)nc2c(C)cccc12` [compound 342], for which the “Colistin MIC Shift” value (in assay [2]; in the assay on E. coli) was 8x each time. Also, the “colistin MIC shift, Ab23” value in assay [2] (compound concentration 2 μM) is reported as 8-16x.

Take `Cc1cccc2c(NCCN(C)C)nc(-c3cc(Br)cc(C(F)(F)F)c3)nc12` [compound 345]: the results for the “Colistin MIC Shift” value (in assay [2]; with E. coli) were 4x and 16x, respectively. Besides, the “colistin MIC shift, Ab23” value in assay [2] (compound concentration 2 μM) is 8-16x.

For the compound `Cc1cccc2c(NCCCN3CCNCC3)nc(-c3cc(Br)cc(C(F)(F)F)c3)nc12` [compound 348], the “Colistin MIC Shift” value in assay [2] stood at 8x; with E. coli it was 16x. Further, the “colistin MIC shift, Ab23” value in assay [2] (compound concentration 2 μM) was 8-16x.

As for `Cc1cccc2c(NCCCN(C)C)nc(-c3cc(Br)cc(C(F)(F)F)c3)nc12` [compound 353], the “Colistin MIC Shift” value (in assay [2]; with E. coli) was 8x throughout. In assay [2] (compound concentration 2 μM), the “colistin MIC shift, Ab23” value is on record as 8-16x.

Turning to `NCC(=O)n1cc(-c2ccc(Cl)c(Cl)c2)c2cc(Cl)ccc21` [compound 360], the “Colistin MIC Shift” value (in assay [2]; with E. coli) was 4x throughout. The “colistin MIC shift, Ab23” value in assay [2] (compound concentration 2 μM) was found to be 16x.

Consider `CC(N)C(=O)n1cc(-c2ccc(Cl)c(Cl)c2)c2cc(Cl)ccc21` (stereo not shown) [compound 361], for which the “Colistin MIC Shift” value (in assay [2]; in the assay on E. coli) was 4x throughout. Also, the “colistin MIC shift, Ab23” value in assay [2] (compound concentration 2 μM) is 16x.

Turning to `CNCCCN(C)c1nc(-c2cccc(-c3cc(C(F)(F)F)ccc3F)c2)nc2c(C)cccc12` [compound 487], the “Colistin MIC Shift” value in assay [2] is recorded as 8x; in the assay on E. coli, 16x. Further, the “colistin MIC shift, Ab23” value in assay [2] (compound concentration 4 μM) was 32x.

Consider `CCN(CC)CCCC(C)Nc1nc(-c2cc(-c3ccccc3)cc(C(F)(F)F)c2)nc2c(C)cccc12` (stereo not shown) [compound 492], for which the “Colistin MIC Shift” value (in assay [2]; in the assay with E. coli) was 8x in each case. Moreover, in assay [2] (compound concentration 4 μM), the “colistin MIC shift, Ab23” value is listed as 32x.

On to `CN(C)CCCNc1nc(-c2cc(Br)cc(C(F)(F)F)c2)nc2c(C(F)(F)F)cccc12` [compound 505], for which the “Colistin MIC Shift” value was found to be 4x in assay [2] and 8x with E. coli. Further, the “colistin MIC shift, Ab23” value in assay [2] (compound concentration 4 μM) is 32x.

Take `Cc1cccc2c(NCCCN(C)C)nc(-c3cc(Cl)cc(C(F)(F)F)c3)nc12` [compound 506]: the “Colistin MIC Shift” value is listed as 4x in assay [2] and 8x with E. coli. Further, the “colistin MIC shift, Ab23” value in assay [2] (compound concentration 4 μM) came out at 16x.

As for `CN(C)CCCNc1nc(/C=C/c2ccc(Cl)c(Cl)c2)nc2c(C(F)(F)F)cccc12` [compound III], in assay [1] (setting [3]), the “MIC Shift of Colistin and Potentiator” value is recorded as 133 x; the “FICI Values of Colistin and Potentiator” value was 0.21. In assay [1] (setting [4]), the “MIC Shift of Colistin and Potentiator” value stood at 533 x; the “FICI Values of Colistin and Potentiator” value is 0.17. Further, in assay [1] (setting [5]), the “MIC Shift of Colistin and Potentiator” value came to 33 x; the “FICI Values of Colistin and Potentiator” value is recorded as 0.19. For the same compound, in the assay on Ab23, the “time-kill: effect on Ab23 cells in the absence of colistin” value (“time-kill: effect on Ab23 cells” below) is listed as “reduced Ab23 in two hours, although the effect was not sustained” and the “time-kill: effect in the presence of colistin” value is listed as “potent synergists of colistin”.

Regarding `FC(F)(F)c1ccc2c(-c3ccc(Cl)c(Cl)c3)n[nH]c2c1` [compound II], in assay [1] (setting [3]), the “MIC Shift of Colistin and Potentiator” value came to 267 x; the “FICI Values of Colistin and Potentiator” value is 0.15. In assay [1] (setting [4]), the “MIC Shift of Colistin and Potentiator” value is on record as 32 x; the “FICI Values of Colistin and Potentiator” value worked out at 0.39. In assay [1] (setting [5]), the “MIC Shift of Colistin and Potentiator” value is recorded as 16 x; the “FICI Values of Colistin and Potentiator” value worked out at 0.26. In the assay on Ab23, the “time-kill: effect on Ab23 cells” value is “had no effect on the cells” and the “time-kill: effect in the presence of colistin” value is “potent synergists of colistin”.

On to `Clc1ccc(/C=C/c2c[nH]c3ccc(Br)cc23)cc1Cl` [compound I], for which, in assay [1] (setting [3]), the “MIC Shift of Colistin and Potentiator” value was found to be 133 x; the “FICI Values of Colistin and Potentiator” value was found to be 0.25. Also, in assay [1] (setting [4]), the “MIC Shift of Colistin and Potentiator” value came to 64 x; the “FICI Values of Colistin and Potentiator” value is listed as 0.30. Besides, in assay [1] (setting [5]), the “MIC Shift of Colistin and Potentiator” value turned out to be 16 x; the “FICI Values of Colistin and Potentiator” value was 0.26. Also, in the assay on Ab23, the “time-kill: effect on Ab23 cells” value is on record as “had no effect on the cells” and the “time-kill: effect in the presence of colistin” value is listed as “potent synergists of colistin”. For the same compound, the “time-kill: concentration of potentiator required for effect” value in the assay on Ab23 (in combination with colistin, Ab23, FIG. 2) turned out to be 2.
